Cell viability data for seven compounds are collected here from the supplement of paper PMC8671470.

Molecules are shown by their SMILES.

In one experiment the test system is Mono-Mac-6. Briefly: cell viability (% survival relative to DMSO control, bortezomib = 0%); higher = less cytotoxic. The following applies: 72 h. In short, it runs like this: (§1)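 Percent survival figures are means of duplicate wells. They were obtained by CellTiter-Glo luminescence after 10 AML and 5 CML cell lines spent 72 h at 37 °C with 5% CO2 in 384-well plates with compounds at 1, 10, 100, 1000 or 10000 nM. Vehicle was set to 100% and a 10 µM positive control to 0%.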

For the next experiment, the system named is MV4-11. The experiment is described as above. The conditions noted are these: 72 h. In short, it runs like this:
as §1

As to `O=C(O)c1nn(Cc2ccc(Cl)cc2Cl)c2ccccc12` [Lonidamine], the cell viability amounted to 106% with Mono-Mac-6 (1 nM); 111% in the experiment on Mono-Mac-6 (10 nM); 102% with Mono-Mac-6 (100 nM); 87.5% in the experiment with Mono-Mac-6 (1000 nM); 72.5% in the experiment with Mono-Mac-6 (10000 nM); 78.5% in the experiment with MV4-11 (1 nM). Also, the cell viability in the experiment on MV4-11 (10 nM) stood at 96.2%; in the experiment on MV4-11 (100 nM), 88.9%; in the experiment on MV4-11 (1000 nM), 98.1%; in the experiment on MV4-11 (10000 nM), 106%.
With `CCOC(=O)[C@@]1(CCCCCCOc2ccc(Cl)cc2)CO1` [Etomoxir], the cell viability in the experiment on Mono-Mac-6 (1 nM) was 93.5%; in the experiment with Mono-Mac-6 (10 nM), 94.4%; in the experiment on Mono-Mac-6 (100 nM), 92.9%; in the experiment with Mono-Mac-6 (1000 nM), 95.7%; with Mono-Mac-6 (10000 nM) it was 96.3%; in the experiment on MV4-11 (1 nM) it was 105%. Besides, the cell viability is 97.2% in the experiment with MV4-11 (10 nM), 99% in the experiment on MV4-11 (100 nM), 85.3% in the experiment with MV4-11 (1000 nM) and 79.3% in the experiment with MV4-11 (10000 nM).
As for `N[C@](CCCCB(O)O)(CCN1CCCCC1)C(=O)O` [Arginase inhibitor 1], the cell viability in the experiment with Mono-Mac-6 (1 nM) turned out to be 101%; with Mono-Mac-6 (10 nM) it was 83.8%; in the experiment on Mono-Mac-6 (100 nM) it was 93.1%; with Mono-Mac-6 (1000 nM), 93.8%; in the experiment on Mono-Mac-6 (10000 nM), 94.5%; with MV4-11 (1 nM), 101%. Further, the cell viability with MV4-11 (10 nM) was found to be 92.3%; with MV4-11 (100 nM) it was 103%; in the experiment with MV4-11 (1000 nM), 92.4%; with MV4-11 (10000 nM), 84.9%.
For `O=C(COc1ccc(C(=O)c2ccccc2)cc1)NC1CCN(Cc2ccccc2)CC1` [AdipoRon], the cell viability amounted to 96.3% in the experiment on Mono-Mac-6 (1 nM); 101% in the experiment on Mono-Mac-6 (10 nM); 99.9% in the experiment with Mono-Mac-6 (100 nM); 98.1% in the experiment on Mono-Mac-6 (1000 nM); 90.7% in the experiment with Mono-Mac-6 (10000 nM); 86.7% with MV4-11 (1 nM). For the same compound, the cell viability with MV4-11 (10 nM) amounted to 92%; with MV4-11 (100 nM), 94.2%; with MV4-11 (1000 nM) it was 91.9%; in the experiment with MV4-11 (10000 nM), 48.6%.
`Cl.OC[C@H]1NC[C@@H](O)[C@@H](O)[C@@H]1O` [1-Deoxymannojirimycin hydrochloride]: the cell viability in the experiment on Mono-Mac-6 (1 nM) was 108%; in the experiment with Mono-Mac-6 (10 nM) it was 89.9%; in the experiment on Mono-Mac-6 (100 nM), 109%; in the experiment with Mono-Mac-6 (1000 nM), 87.2%; in the experiment with Mono-Mac-6 (10000 nM), 96.2%; with MV4-11 (1 nM), 102%. Moreover, the cell viability in the experiment with MV4-11 (10 nM) is 92.2%; in the experiment on MV4-11 (100 nM) it was 99.3%; in the experiment on MV4-11 (1000 nM) it was 105%; in the experiment on MV4-11 (10000 nM), 80.8%.
Take `C[C@H]1O[C@@H](O[C@H]2[C@@H](O)C[C@H](O[C@H]3[C@@H](O)C[C@H](O[C@H]4CC[C@@]5(C)[C@H](CC[C@@H]6[C@@H]5C[C@@H](O)[C@]5(C)[C@@H](C7=CC(=O)OC7)CC[C@]65O)C4)O[C@@H]3C)O[C@@H]2C)C[C@H](O)[C@@H]1O` [Digoxin]: the cell viability is 94.6% with Mono-Mac-6 (1 nM); 100% with Mono-Mac-6 (10 nM); 13% in the experiment with Mono-Mac-6 (100 nM); -0.503% in the experiment on Mono-Mac-6 (1000 nM); -0.351% with Mono-Mac-6 (10000 nM); 110% in the experiment with MV4-11 (1 nM). Further, the cell viability turned out to be 114% with MV4-11 (10 nM), 4.71% in the experiment with MV4-11 (100 nM), 0.26% in the experiment with MV4-11 (1000 nM) and 0.435% with MV4-11 (10000 nM).
With `CC(C(=O)O)C(=O)O` [Methylmalonate], the cell viability was 96.2% in the experiment on Mono-Mac-6 (1 nM); 93% in the experiment with Mono-Mac-6 (10 nM); 106% with Mono-Mac-6 (100 nM); 96.1% with Mono-Mac-6 (1000 nM); 90.3% in the experiment on Mono-Mac-6 (10000 nM); 94.7% in the experiment on MV4-11 (1 nM). Moreover, the cell viability with MV4-11 (10 nM) came out at 80.3%; with MV4-11 (100 nM), 107%; in the experiment on MV4-11 (1000 nM) it was 97.1%; with MV4-11 (10000 nM) it was 102%.

Broadly, the cell viability is a read-out of living cells in per cent, often relative to untreated cells.
